For the data set, the system named is rodent carcinogenicity bioassays, tumor incidence. The data set can be described thus: CCRIS carcinogenicity studies. The essentials: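 Archive of carcinogenicity, mutagenicity, tumor promotion and tumor inhibition results drawn from journals, NCI reports and other sources, expert-reviewed; covers 1985-2011 and is no longer updated.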

We go through 6 compounds from PubChem BioAssay AID1259411 (Chemical Carcinogenesis Research Information System (CCRIS), 2018).

SMILES strings stand for the structures. Active and inactive are the calls of the source. No rule for the calls is given here.

`Oc1ccc2c(c1)OCO2`: the carcinogen call is “active; positive” (Species: MOUSE, Strain/Sex: B6C3F1/FEMALE, Route: ORAL, Dose: 0, 2% IN DIET FOR 96 WK (STUDY DURATION: 96 WK), Tumor Site: Type of Lesion: FORESTOMACH: SQUAMOUS CELL CARCINOMA); “active; positive” (Species: MOUSE, Strain/Sex: B6C3F1/FEMALE, Route: ORAL, Dose: 0, 2% IN POWDERED BASAL DIET FOR 96 WK (STUDY DURATION: 96 WK), Tumor Site: Type of Lesion: FORESTOMACH: SQUAMOUS CELL CARCINOMA); “active; positive” (Species: MOUSE, Strain/Sex: B6C3F1/MALE, Route: ORAL, Dose: 0, 2% IN DIET FOR 96 WK (STUDY DURATION: 96 WK), Tumor Site: Type of Lesion: FORESTOMACH: SQUAMOUS CELL CARCINOMA); “active; positive” (Species: MOUSE, Strain/Sex: B6C3F1/MALE, Route: ORAL, Dose: 0, 2% IN POWDERED BASAL DIET FOR 96 WK (STUDY DURATION: 96 WK), Tumor Site: Type of Lesion: FORESTOMACH: SQUAMOUS CELL CARCINOMA); “inactive; negative” (Species: RAT, Strain/Sex: F344/FEMALE, Route: ORAL, Dose: 0, 2% IN DIET FOR 104 WK (STUDY DURATION: 104 WK)); “active; positive” (Species: RAT, Strain/Sex: F344/FEMALE, Route: ORAL, Dose: 0, 2% IN DIET FOR 104 WK (STUDY DURATION: 104 WK), Tumor Site: Type of Lesion: FORESTOMACH: PAPILLOMA). Moreover, the carcinogen call by setting is: (Species: RAT, Strain/Sex: F344/FEMALE, Route: ORAL, Dose: 0, 2% IN POWDERED BASAL DIET FOR 104 WK (STUDY DURATION: 104 WK), Tumor Site: Type of Lesion: FORESTOMACH: PAPILLOMA) “active; positive”; (Species: RAT, Strain/Sex: F344/MALE, Route: ORAL, Dose: 0, 0.4% IN DIET FOR DURATION OF STUDY (STUDY DURATION: 104 WK)) “inactive; negative”; (Species: RAT, Strain/Sex: F344/MALE, Route: ORAL, Dose: 0, 2% IN DIET FOR 104 WK (STUDY DURATION: 104 WK), Tumor Site: Type of Lesion: FORESTOMACH: PAPILLOMA, SQUAMOUS CELL CARCINOMA) “active; positive”; (Species: RAT, Strain/Sex: F344/MALE, Route: ORAL, Dose: 0, 2% IN DIET FOR 104 WK (STUDY DURATION: 104 WK), Tumor Site: Type of Lesion: FORESTOMACH: SQUAMOUS CELL CARCINOMA) “active; positive”; (Species: RAT, Strain/Sex: F344/MALE, Route: ORAL, Dose: 0, 2% IN POWDERED BASAL DIET FOR 104 WK (STUDY DURATION: 104 WK), Tumor Site: Type of Lesion: FORESTOMACH: PAPILLOMA, SQUAMOUS CELL CARCINOMA) “active; positive”.

Take `CC(C)NC(=O)N1CC(=O)N(c2cc(Cl)cc(Cl)c2)C1=O`: the carcinogen call was “active; positive” (Species: Mouse, Strain/Sex: CD-1/Female (50/Group), Route: Oral, Dose: 0, 160, 800, 4000 ppm of 95.7% iprodione in diet for 99 wk, study duration 99 wk, Dose: 0, 160, 800, 4000 ppm of 95.7% iprodione in diet for 99 wk, study duration 99 wk, Tumor Site: Type of Lesion: Liver: hepatocellular adenoma and carcinoma in high dose mice); “active; positive” (Species: Mouse, Strain/Sex: CD-1/Male (50/Group), Route: Oral, Dose: 0, 160, 800, 4000 ppm of 95.7% iprodione in diet for 99 wk, study duration 99 wk, Dose: 0, 160, 800, 4000 ppm of 95.7% iprodione in diet for 99 wk, study duration 99 wk, Tumor Site: Type of Lesion: Liver: hepatocellular adenoma and carcinoma in high dose mice); “inactive; negative” (Species: Rat, Strain/Sex: Sprague-Dawley/Female (60/Group), Route: Oral, Dose: 0, 8.4, 16.5, 95 mg/kg/day of 94.5-95.7% iprodione in diet for 104 wk, study duration 104 wk, Dose: 0, 8.4, 16.5, 95 mg/kg/day of 94.5-95.7% iprodione in diet for 104 wk, study duration 104 wk); “active; positive” (Species: Rat, Strain/Sex: Sprague-Dawley/Male (60/Group), Route: Oral, Dose: 0, 6.1, 12.4, 69 mg/kg/day of 94.5-95.7% iprodione in diet for 104 wk, study duration 104 wk, Dose: 0, 6.1, 12.4, 69 mg/kg/day of 94.5-95.7% iprodione in diet for 104 wk, study duration 104 wk, Tumor Site: Type of Lesion: Testes: Interstitial cell adenoma (high dose only)).

Take `C#C[C@]1(OC(C)=O)CC[C@H]2[C@@H]3CCC4=CC(=O)CC[C@@H]4[C@H]3CC[C@@]21C`: the carcinogen call is, setting by setting: (Species: MOUSE, Route: ORAL, Tumor Site: Type of Lesion: LIVER, PITUITARY GLAND) “active; positive”; (Species: RAT, Route: ORAL, Tumor Site: Type of Lesion: LIVER) “active; positive”.

On to `CC/C(C)=N\O`, for which the carcinogen call is, setting by setting: (Species: MOUSE, Strain/Sex: CD-1/FEMALE, Route: INHALATION, Dose: 0, 15, 75, 374 PPM 6 HR/D 5 D/WK FOR 26 MO (STUDY DURATION: 26 MO), Dose: 0, 15, 75, 374 PPM 6 HR/D 5 D/WK FOR 26 MO (STUDY DURATION: 26 MO)) “inactive; negative”; (Species: MOUSE, Strain/Sex: CD-1/MALE, Route: INHALATION, Dose: 0, 15, 75, 374 PPM 6 HR/D 5 D/WK FOR 26 MO (STUDY DURATION: 26 MO), Dose: 0, 15, 75, 374 PPM 6 HR/D 5 D/WK FOR 26 MO (STUDY DURATION: 26 MO), Tumor Site: Type of Lesion: LIVER: CARCINOMA, ADENOMA OR CARCINOMA) “active; positive”; (Species: RAT, Strain/Sex: F344/FEMALE, Route: INHALATION, Dose: 0, 15, 75, 374 PPM 6 HR/D 5 D/WK FOR 26 MO (STUDY DURATION: 26 MO), Dose: 0, 15, 75, 374 PPM 6 HR/D 5 D/WK FOR 26 MO (STUDY DURATION: 26 MO)) “inactive; negative”; (Species: RAT, Strain/Sex: F344/MALE, Route: INHALATION, Dose: 0, 15, 75, 374 PPM 6 HR/D 5 D/WK FOR 26 MO (STUDY DURATION: 26 MO), Dose: 0, 15, 75, 374 PPM 6 HR/D 5 D/WK FOR 26 MO (STUDY DURATION: 26 MO), Tumor Site: Type of Lesion: LIVER: ADENOMA, CARCINOMA, ADENOMA OR CARCINOMA) “active; positive”.

As for `c1ccc2c(c1)ccc1nc3ccc4ccccc4c3cc12`, the carcinogen call reads like this: (Species: MOUSE, Route: DERMAL, Tumor Site: Type of Lesion: INTEGUMENTARY SYSTEM (SKIN)) “active; positive”; (Species: MOUSE, Route: SUBCUTANEOUS, Tumor Site: Type of Lesion: LUNG) “active; positive”; (Species: MOUSE, Strain/Sex: HSD:ICR(BR)/FEMALE, Route: DERMAL, Dose: 0, 50 NMOL IN 50 µL ACETONE 2/WK FOR 99 WK (STUDY DURATION: 99 WK), Tumor Site: Type of Lesion: SKIN: TUMOR) “active; positive”; (Species: RAT, Strain/Sex: OSBORNE-MENDEL/FEMALE, Route: LUNG IMPLANT, Dose: 0, 0.1, 0.3, 1.0 MG IN BEESWAX/TRICAPRYLIN (STUDY DURATION: LIFETIME), Dose: 0, 0.1, 0.3, 1.0 MG IN BEESWAX/TRICAPRYLIN (STUDY DURATION: LIFETIME)) “inactive; negative”.

For `[O]=[Mo](=[O])=[O]`, the carcinogen call (Species: MOUSE, Strain/Sex: B6C3F1/FEMALE, Route: INHALATION, Dose: 0, 10, 30, 100 MG/M3 6 HR/D 5 D/WK FOR 105 WK (STUDY DURATION: 105 WK), Dose: 0, 10, 30, 100 MG/M3 6 HR/D 5 D/WK FOR 105 WK (STUDY DURATION: 105 WK), Tumor Site: Type of Lesion: LUNG: ALVEOLAR/BRONCHIOLAR ADENOMA, ALVEOLAR/BRONCHIOLAR ADENOMA OR CARCINOMA) is “active; positive”; the carcinogen call (Species: MOUSE, Strain/Sex: B6C3F1/MALE, Route: INHALATION, Dose: 0, 10, 30, 100 MG/M3 6 HR/D 5 D/WK FOR 105 WK (STUDY DURATION: 105 WK), Dose: 0, 10, 30, 100 MG/M3 6 HR/D 5 D/WK FOR 105 WK (STUDY DURATION: 105 WK), Tumor Site: Type of Lesion: LUNG: ALVEOLAR/BRONCHIOLAR CARCINOMA) was “active; positive”; the carcinogen call (Species: RAT, Strain/Sex: F344/FEMALE, Route: INHALATION, Dose: 0, 10, 30, 100 MG/M3 6 HR/D 5 D/WK FOR 106 WK (STUDY DURATION: 106 WK), Dose: 0, 10, 30, 100 MG/M3 6 HR/D 5 D/WK FOR 106 WK (STUDY DURATION: 106 WK)) is “inactive; negative”; the carcinogen call (Species: RAT, Strain/Sex: F344/MALE, Route: INHALATION, Dose: 0, 10, 30, 100 MG/M3 6 HR/D 5 D/WK FOR 106 WK (STUDY DURATION: 106 WK), Dose: 0, 10, 30, 100 MG/M3 6 HR/D 5 D/WK FOR 106 WK (STUDY DURATION: 106 WK), Tumor Site: Type of Lesion: LUNG: ALVEOLAR/BRONCHIOLAR ADENOMA, ALVEOLAR/BRONCHIOLAR CARCINOMA, ALVEOLAR/BRONCHIOLAR ADENOMA OR CARCINOMA) is on record as “equivocal”.
